Test results from patent US11505558B1, “Antiviral heterocyclic compounds” (Enanta Pharmaceuticals, Inc., priority 2019, dated 2022).

What follows are molecules tested on genotype A, "Long" strain RSV (assay: RSV-A assay (CPE, ATPlite readout in Hep-2 cells)). Details: human respiratory syncytial virus, HEp-2, Hep-2 cells, genotype A "Long" strain RSV, MOI 0.1; read-out: Human RSV-A (“Long” strain) EC50.
Assay type: cell-based
Text: Hep-2 cells, (originally derived from tumors grown in irradiated-cortisonised weanling rats that had been injected with epidermoid carcinoma tissue from a person's larynx, but later found to be indistinguishable from HeLa cells by PCR DNA analysis), were used for the culturing of genotype A, “Long” strain RSV. Flasks were inoculated with RSV and viral stocks were collected once cytopathic effect (CPE) was greater than […]. Viral stocks in […] sucrose media were snap frozen using liquid nitrogen to increase viral stability. Viral stock titers were quantified by tissue culture infectious dose 50% (TCID50) using 8,000 cells per well and 3-fold viral dilutions across a 96-well plate, cultured for 4 days. Viral stock titers were also quantified by a plaque forming unit assay, as described elsewhere.
Following extensive parameter testing, the final assay is run as follows: Hep-2 cells are seeded into the inner 60 wells of a 96-well plate at 8,000 cells per well in a volume of 50 μL using Growth Media (DMEM without phenol red, 1% L-Glut, 1% Penn/Strep, 1% nonessential amino acids, 10% heat-inactivated FBS). 2-fold serial dilutions of control and test compounds are added to the wells in duplicate in a total volume of 25 μL. Viral stock is then added to the wells at a multiplicity of infection (MOI) of 0.1 in a volume of 25 μL, bringing the total volume of each well to 100 μL. The MOI is calculated using the PFU/mL, or TCID50 if unavailable. Each 96-well plate has a control column of 6 wells with cells and virus but no compound (negative control, max CPE), a column with cells but no compound or virus (positive control, minimum CPE), and a column with no cells or virus or compound (background plate/reagent control). The control wells with cells but no virus are given an additional 25 μL of growth media containing an equal quantity of sucrose as those wells receiving the viral stock in order to keep consistent in media and volume conditions. The outer wells of the plate are filled with 125 μL of moat media (DMEM, 1% Penn/Strep) to act as a thermal and evaporative moat around the test wells. Following a 5-day incubation period, the plates are read using ATPlite (50 uL added per well), which quantifies the amount of ATP (a measure of cell health) present in each well. Assay plates are read using the Envision luminometer. […] EC50 ranges are as follows: A<0.2 μM; B>0.2 μM.

| SMILES | EC50 [nM] |
| --- | --- |
| C[C@]1(C(N)=O)COc2c1cc([C@@](O)(CNC(=O)c1ccccc1)C(F)(F)F)nc2-c1ccc(F)cc1 [Example 308] | > 200 |
| Cc1cnccc1-c1ccc(C(=O)NC[C@](O)(c2cc3c(c(-c4ccc(F)cc4)n2)OC[C@]3(C)C(N)=O)C(F)(F)F)cc1OC1CC1 [Example 153] | > 200 |
| Cc1cnccc1-c1cc(C(=O)NC[C@](O)(c2cc3c(c(-c4ccc(F)cc4)n2)OC[C@]3(C)C(N)=O)C(F)(F)F)ccc1OC1CC1 [Example 117] | > 200 |
| C[C@@H](O)COc1ccc(C(=O)NC[C@](O)(c2cc3c(c(-c4ccc(F)cc4)n2)OC[C@]3(C)C(N)=O)C(F)(F)F)cc1-c1cccnc1 [Example 204] | > 200 |
| CCOc1ccc2[nH]c(C(=O)NC[C@](O)(c3cc4c(c(-c5ccc(F)cc5)n3)OC[C@]4(C)C(N)=O)C(F)(F)F)cc2c1 [Example 297] | > 200 |
| C[C@]1(C(N)=O)COc2c1cc([C@@](O)(CNC(=O)c1ccc(OC3CC3)c(-c3cnccc3C(F)(F)F)c1)C(F)(F)F)nc2-c1ccc(F)cc1 [Example 139] | > 200 |
| Cc1noc(C)c1-c1cc(C(=O)NC[C@](O)(c2cc3c(c(-c4ccc(F)cc4)n2)OC[C@]3(C)C(N)=O)C(F)(F)F)ccc1OC1CC1 [Example 121] | > 200 |
| COc1cc(C(=O)NC[C@](O)(c2cc3c(c(-c4ccc(F)cc4)n2)OC[C@]3(C)CNc2ccccc2)C(F)(F)F)ccc1OCCO [Example 5] | > 200 |
| C[C@]1(C(N)=O)COc2c1cc([C@@](O)(CNC(=O)c1ccc3ccccc3n1)C(F)(F)F)nc2-c1ccc(F)cc1 [Example 243] | > 200 |
| CC(C)(O)COc1cc(C(=O)NC[C@](O)(c2cc3c(c(-c4ccc(F)cc4)n2)OC[C@]3(C)C(N)=O)C(F)(F)F)cc2cccnc12 [Example 270] | > 200 |
| Cc1ccc2cc(C(=O)NC[C@](O)(c3cc4c(c(-c5ccc(F)c(Cl)c5)n3)OC[C@]4(C)C(N)=O)C(F)(F)F)cc(N3CCCC3=O)c2n1 [Example 653] | > 200 |
| Cn1c(=O)n(C)c2cc(C(=O)NC[C@](O)(c3cc4c(c(-c5ccc(F)cc5)n3)OC[C@]4(C)C(N)=O)C(F)(F)F)ccc21 [Example 322] | > 200 |
| Cn1c(=O)[nH]c2ccc(C(=O)NC[C@](O)(c3cc4c(c(-c5ccc(F)cc5)n3)OC[C@]4(C)C(N)=O)C(F)(F)F)cc21 [Example 326] | > 200 |
| Cn1nnc2cc(C(=O)NC[C@](O)(c3cc4c(c(-c5ccc(F)cc5)n3)OC[C@]4(C)C(N)=O)C(F)(F)F)ccc21 [Example 315] | > 200 |
| COc1ccc(CC(=O)NC[C@](O)(c2cc3c(c(-c4ccc(F)cc4)n2)OC[C@]3(C)C(N)=O)C(F)(F)F)cc1OC [Example 592] | > 200 |
| C[C@@H](O)COc1ccc2cc(C(=O)NC[C@](O)(c3cc4c(c(-c5ccc(F)cc5)n3)OC[C@]4(C)C(N)=O)C(F)(F)F)cc(OC3CC3)c2n1 [Example 405] | > 200 |
| C[C@]1(C(N)=O)COc2c1cc([C@@](O)(CNC(=O)c1ccc(C3=CCOCC3)c(OC3CC3)c1)C(F)(F)F)nc2-c1ccc(F)cc1 [Example 178] | > 200 |
| CC(Oc1cc(C(=O)NC[C@](O)(c2cc3c(c(-c4ccc(F)cc4)n2)OC[C@]3(C)C(N)=O)C(F)(F)F)cc2cccnc12)C(N)=O (some centres unmarked) [Example 383] | > 200 |
| COc1cc(C(=O)NC[C@](O)(c2cc3c(c(-c4ccc(F)cc4)n2)OC[C@]3(C)C(N)=O)C(F)(F)F)ccc1OCCN1CCN(C)CC1 [Example 190] | > 200 |
| CC(C)(C)OC(=O)NCCOc1cc(C(=O)NC[C@](O)(c2cc3c(c(-c4ccc(F)cc4)n2)OC[C@]3(C)C(N)=O)C(F)(F)F)cc2cccnc12 [Example 355] | > 200 |
| C[C@]1(C(N)=O)COc2c1cc([C@@](O)(CNC(=O)c1ccc(-c3ccncn3)c(OC3CC3)c1)C(F)(F)F)nc2-c1ccc(F)cc1 [Example 170] | > 200 |
| Cc1nnc2ccc(C(=O)NC[C@](O)(c3cc4c(c(-c5ccc(F)cc5)n3)OC[C@]4(C)C(N)=O)C(F)(F)F)cc2c1C [Example 231] | > 200 |
| COc1cc(C(=O)NC[C@](O)(c2cc3c(c(-c4ccc(F)cc4)n2)OC[C@]3(C)C(=O)NC2(C(F)(F)F)CC2)C(F)(F)F)cc2cccnc12 [Example 51] | > 200 |
| Cc1cc2cc(C(=O)NC[C@](O)(c3cc4c(c(-c5ccc(F)cc5)n3)OC[C@]4(C)C(N)=O)C(F)(F)F)cc(NC(=O)NC3COC3)c2nc1C [Example 660] | < 200 |
| Cc1ccc(-c2ccc(C(=O)NC[C@](O)(c3cc4c(c(-c5ccc(F)cc5)n3)OC[C@]4(C)C(N)=O)C(F)(F)F)cc2OC2CC2)nc1 [Example 157] | > 200 |
| C[C@]1(C(N)=O)COc2c1cc([C@@](O)(CNC(=O)c1cc(-c3ncccn3)c3ncccc3c1)C(F)(F)F)nc2-c1ccc(F)cc1 [Example 354] | > 200 |
| COc1cc(C(=O)NC[C@](O)(c2cc3c(c(-c4ccc(F)cc4)n2)OC[C@]3(C)C(N)=O)C(F)(F)F)ccc1OCCF [Example 68] | < 200 |
| C[C@]1(C(N)=O)COc2c1cc([C@@](O)(CNC(=O)c1ccc(OC3CC3)c(-c3nccs3)c1)C(F)(F)F)nc2-c1ccc(F)cc1 [Example 125] | < 200 |
| C[C@]1(C(N)=O)COc2c1cc([C@@](O)(CNC(=O)c1ccc(-c3ccncc3C(F)(F)F)c(OC3CC3)c1)C(F)(F)F)nc2-c1ccc(F)cc1 [Example 154] | > 200 |
| Cn1cnc2ccc(C(=O)NC[C@](O)(c3cc4c(c(-c5ccc(F)cc5)n3)OC[C@]4(C)C(N)=O)C(F)(F)F)cc21 [Example 334] | > 200 |

Continued, values first:

| EC50 [nM] | SMILES |
| --- | --- |
| < 200 | Cc1cnc2c(NC(=O)Nc3cccnc3)cc(C(=O)NC[C@](O)(c3cc4c(c(-c5ccc(F)cc5)n3)OC[C@]4(C)C(N)=O)C(F)(F)F)cc2c1 [Example 625] |
| < 200 | Cc1cc(-c2ccc(C(=O)NC[C@](O)(c3cc4c(c(-c5ccc(F)cc5)n3)OC[C@]4(C)C(N)=O)C(F)(F)F)cc2OC2CC2)ccn1 [Example 151] |
| < 200 | C[C@]1(C(N)=O)COc2c1cc([C@@](O)(CNC(=O)c1ccc(-c3ccnnc3)c(OC3CC3)c1)C(F)(F)F)nc2-c1ccc(F)cc1 [Example 168] |
| < 200 | CC(=O)NCCCNC(=O)[C@@]1(C)COc2c1cc([C@@](O)(CNC(=O)c1cc(OC3CC3)c3ncccc3c1)C(F)(F)F)nc2-c1ccc(F)cc1 [Example 455] |
| < 200 | COc1cc(C(=O)NC[C@](O)(c2cc3c(c(-c4ccc(F)cc4)n2)OC[C@]3(C)C(N)=O)C2CC2)cc2cccnc12 [Example 249] |
| < 200 | C[C@]1(C(N)=O)COc2c1cc([C@@](O)(CNC(=O)c1cc(NC(=O)C(F)F)c3ncccc3c1)C(F)(F)F)nc2-c1ccc(F)cc1 [Example 396] |
| < 200 | C[C@]1(C(N)=O)COc2c1cc([C@@](O)(CNC(=O)c1cc(NC(=O)c3ncc[nH]3)c3ncccc3c1)C(F)(F)F)nc2-c1ccc(F)cc1 [Example 403] |
| < 200 | C[C@]1(C(N)=O)COc2c1cc([C@@](O)(CNC(=O)c1cc(O)c3nc(N)sc3c1)C(F)(F)F)nc2-c1ccc(F)cc1 [Example 442] |
| < 200 | C[C@]1(C(N)=O)COc2c1cc([C@@](O)(CNC(=O)c1cc(OC3CC3)c3[nH]c(=O)ccc3c1)C(F)(F)F)nc2-c1ccc(F)cc1 [Example 584] |
| < 200 | CCCNC(=O)[C@@]1(C)COc2c1cc([C@@](O)(CNC(=O)c1cc(OC3CC3)c3ncccc3c1)C(F)(F)F)nc2-c1ccc(F)cc1 [Example 456] |
| < 200 | Cc1cnc2c(NC(=O)NNCC(C)(C)O)cc(C(=O)NC[C@](O)(c3cc4c(c(-c5ccc(F)cc5)n3)OC[C@]4(C)C(N)=O)C(F)(F)F)cc2c1 [Example 632] |
| < 200 | CNC(=O)Nc1cc(C(=O)NC[C@](O)(c2cc3c(c(-c4ccc(F)cc4)n2)OC[C@]3(C)C(N)=O)C(F)(F)F)cc2cccnc12 [Example 409] |
| < 200 | C[C@]1(C(N)=O)COc2c1cc([C@@](O)(CNC(=O)c1cc(OC(F)(F)C(N)=O)c3ncccc3c1)C(F)(F)F)nc2-c1ccc(F)cc1 [Example 365] |
| < 200 | C[C@]1(C(=O)N2CCC(C#N)C2)COc2c1cc([C@@](O)(CNC(=O)c1cc(OC3CC3)c3ncccc3c1)C(F)(F)F)nc2-c1ccc(F)cc1 (some centres unmarked) [Example 555] |
| < 200 | COc1cc(C(=O)NC[C@](O)(c2cc3c(c(-c4ccc(F)cc4)n2)OC[C@]3(C)CNC2CC2)C(F)(F)F)ccc1OCCO [Example 3] |
| < 200 | C[C@]1(C(N)=O)COc2c1cc([C@@](O)(CNC(=O)c1ccc(OC3CC3)c(-c3cccnc3C(F)(F)F)c1)C(F)(F)F)nc2-c1ccc(F)cc1 [Example 138] |
| < 200 | C[C@]1(C(=O)N2CCC(=O)C2)COc2c1cc([C@@](O)(CNC(=O)c1cc(OC3CC3)c3ncccc3c1)C(F)(F)F)nc2-c1ccc(F)cc1 [Example 556] |
